Source: patent US20210330611A1, “THERAPY FOR NEUROLOGICAL DISEASES/DISORDERS” (priority 2020, published 2021)
Structures can show the parent of a compound that is named as a salt. Where two headings read alike, the source gives them in different places.

How the values were obtained:
primary rat microglia [1] = experiment: Cell toxicity (dead cells, size <150 μm2) in LPS assay
[2] = test system: LPS-induced microglia activation; experiment: Image-based assay of LPS-induced microglia activation (HTS and dose response); type: cell-based, rat; details: for inhibition at 10 µM: read-out: LPS % inhibition
[3] = test system: fibrin-induced microglia activation; experiment: Image-based assay of fibrin-induced microglia activation (HTS and dose response); type: cell-based, rat; details: for inhibition at 10 µM: read-out: Fibrin % inhibition
primary rat microglia [4] = experiment: Cell toxicity (dead cells, size <150 μm2) in coated fibrin (cFib) assay;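 also: share of dead cells sized under 150 µm2 at 10 µM in fibrin-stimulated microglia HTS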
[5] = test system: fibrin- and LPS-induced microglia activation; experiment: cells; type: cell-based, rat
[6] = primary HTS, 10 μM, LPS assay, dead cells size <150 μm2
[7] = Rattus norvegicus, Microglia, primary HTS, 10 μM, LPS-stimulated primary microglia
[8] = Rattus norvegicus, Microglia, primary HTS, 10 μM, fibrin-stimulated primary microglia
[9] = primary HTS, 10 μM, fibrin assay, dead cells size <150 μm2
[10] = primary microglia HTS, 10 μM, LPS assay, cell size <150 μm^2 as marker of toxicity
[11] = Rattus norvegicus, Microglia, primary microglia HTS, 10 μM, LPS-stimulated, cell size >800 μm^2 as marker of activation
[12] = Rattus norvegicus, Microglia, primary microglia HTS, 10 μM, fibrin-stimulated, cell size >800 μm^2 as marker of activation
[13] = primary microglia HTS, 10 μM, fibrin assay, cell size <150 μm^2 as marker of toxicity
[14] = HTS of 1907 compounds, quadrant by fibrin and LPS inhibition
[15] = primary microglia HTS, LPS stimulation, toxicity = cell size <150 μm2
[16] = primary microglia HTS, LPS stimulation, activation = cell size >800 μm2
[17] = primary microglia HTS, fibrin stimulation, activation = cell size >800 μm2
[18] = primary microglia HTS, fibrin stimulation, toxicity = cell size <150 μm2
[19] = quadrant by fibrin and LPS inhibition in HTS of 1907 compounds
[20] = Rattus norvegicus, Microglia, 48 h, primary microglia HTS, LPS stimulation, activation = cell size >800 μm2
[21] = Rattus norvegicus, Microglia, primary microglia HTS, fibrin stimulation, activation = cell size >800 μm2
[22] = primary microglia HTS, LPS stimulation, decreased size (<150 μm^2) as marker of toxicity
[23] = primary microglia HTS, LPS stimulation, increased cell size (>800 μm^2) as marker of activation
[24] = primary microglia HTS, fibrin stimulation, increased cell size (>800 μm^2) as marker of activation
[25] = primary microglia HTS, fibrin stimulation, decreased size (<150 μm^2) as marker of toxicity
[26] = Rattus norvegicus, Microglia, 48 h, primary microglia HTS, LPS stimulation, increased cell size (>800 μm^2) as marker of activation
[27] = Rattus norvegicus, Microglia, primary microglia HTS, fibrin stimulation, increased cell size (>800 μm^2) as marker of activation

Row | Structure (SMILES) | LPS % cell toxicity (primary rat microglia [1]; [10]) | inhibition at 10 µM [2, 11] | inhibition at 10 µM [3, 12] | Fibrin % cell toxicity (primary rat microglia [4]; [13]) | Quadrant (FIG. 5b) [5, 14] | Quadrant (FIG. 5b) [5, 19] | LPS % cell toxicity (primary rat microglia [1]; [22]) | Fibrin % cell toxicity (primary rat microglia [4]; [25]) | further results
1 | CCCC(C)(COC(N)=O)COC(=O)NC(C)C (centres unmarked) [Carisoprodol] |  |  |  |  |  |  |  |  | LPS % cell toxicity (primary rat microglia [1]; [6]): 0%; inhibition at 10 µM [2, 7]: -1%; inhibition at 10 µM [3, 8]: 1%; Fibrin % cell toxicity (primary rat microglia [4]; [9]): 0%; Quadrant (FIG. 5b) ([5]; primary HTS, 10 μM): Q4
2 | C=CCC1(C(C)CCC)C(=O)N=C(S)NC1=O (centres unmarked) [Thiamylal] | 0% | 26% | -1% | 0% | Q4 |  |  |  | 
3 | OC[C@@H](O)[C@@H](O[C@@H]1O[C@H](CO)[C@H](O)[C@H](O)[C@H]1O)[C@H](O)[C@@H](O)CO [Lacitol] |  |  |  |  |  | Q4 |  |  | LPS % cell toxicity (primary rat microglia [1]; [15]): 1%; LPS % inhibition [2, 16]: 18%; Fibrin % inhibition [3, 17]: −24%; Fibrin % cell toxicity (primary rat microglia [4]; [18]): 1%
4 | NC(=O)CCCCC1CCSS1 (centres unmarked) [Lipoamide] |  |  |  |  |  | Q4 |  |  | LPS % cell toxicity (primary rat microglia [1]; [15]): 0%; inhibition at 10 µM [2, 20]: 8%; inhibition at 10 µM [3, 21]: -18%; Fibrin % cell toxicity (primary rat microglia [4]; [18]): 0%
5 | CN(C)CCOC(c1ccc(Cl)cc1)c1ccccn1 (centres unmarked) [Carbinoxamine] |  |  |  |  |  |  |  |  | LPS % cell toxicity (primary rat microglia [1]; [6]): 0%; inhibition at 10 µM [2, 7]: -3%; inhibition at 10 µM [3, 8]: 6%; Fibrin % cell toxicity (primary rat microglia [4]; [9]): 0%; Quadrant (FIG. 5b) ([5]; primary HTS, 10 μM): Q4
6 | [O-][n+]1cccc(CO)c1 [Mepiroxol] |  |  |  |  |  | Q4 | 0% | 1% | LPS % inhibition [2, 23]: 11%; Fibrin % inhibition [3, 24]: −6%
7 | C[C@@H]1C[C@H]2[C@@H]3CCC4=CC(=O)C=C[C@]4(C)[C@@]3(F)[C@@H](O)C[C@]2(C)[C@H]1C(=O)CO [Desoximetasone] |  |  |  |  |  | Q2 | 3% | 5% | inhibition at 10 µM [2, 26]: 91%; inhibition at 10 µM [3, 27]: 101%
8 | Cc1cc(C(C#N)c2ccc(Cl)cc2)c(Cl)cc1NC(=O)c1cc(I)cc(I)c1O (centres unmarked) [Closantel] |  |  |  |  |  |  |  |  | LPS % cell toxicity (primary rat microglia [1]; [6]): 0%; inhibition at 10 µM [2, 7]: 5%; inhibition at 10 µM [3, 8]: -9%; Fibrin % cell toxicity (primary rat microglia [4]; [9]): 0%; Quadrant (FIG. 5b) ([5]; primary HTS, 10 μM): Q4
9 | C=CC[C@@H]1/C=C(\C)C[C@H](C)C[C@H](OC)[C@H]2O[C@@](O)(C(=O)C(=O)N3CCCC[C@H]3C(=O)O[C@H](/C(C)=C/[C@@H]3CC[C@@H](O)[C@H](OC)C3)[C@H](C)[C@@H](O)CC1=O)[C@H](C)C[C@@H]2OC [Tacrolimus] | 0% | 14% | 27% | 1% | Q4 |  |  |  | 
10 | COc1cnc(NS(=O)(=O)c2ccc(N)cc2)nc1 [Sulfameter] | 0% | 11% | 4% | 1% | Q4 |  |  |  | 
11 | Cc1onc(-c2ccccc2)c1-c1ccc(S(N)(=O)=O)cc1 [Valdecoxib] | 0% | -4% | -39% | 1% | Q4 |  |  |  | 
12 | O=C(Nc1ccc([N+](=O)[O-])cc1Cl)c1cc(Cl)ccc1O [Nicolsamide, Niclosamide] |  |  |  |  |  | Q4 | 1% | 1% | LPS % inhibition [2, 23]: 21%; Fibrin % inhibition [3, 24]: −2%
13 | CN(C)CCOC(=O)COc1ccc(Cl)cc1 [Meclofenoxate] |  |  |  |  |  | Q4 | 0% | 1% | inhibition at 10 µM [2, 26]: 24%; inhibition at 10 µM [3, 27]: -23%
14 | O=C1C2CC3CC1CC(O)(C3)C2 [Idramantone] |  |  |  |  |  | Q4 |  |  | LPS % cell toxicity (primary rat microglia [1]; [15]): 0%; inhibition at 10 µM [2, 20]: 8%; inhibition at 10 µM [3, 21]: -7%; Fibrin % cell toxicity (primary rat microglia [4]; [18]): 1%
15 | CC(C)CCCC(C)N (centres unmarked) [Octodrine] |  |  |  |  |  | Q4 | 0% | 0% | inhibition at 10 µM [2, 26]: -2%; inhibition at 10 µM [3, 27]: 2%
16 | CCCCCC(C)N (centres unmarked) [Tuaminoheptane Sulfate] | 0% | 19% | -7% | 1% | Q4 |  |  |  | 

Row | Structure (SMILES) | LPS % cell toxicity (primary rat microglia [1]; [10]) | inhibition at 10 µM [2, 11] | inhibition at 10 µM [3, 12] | Fibrin % cell toxicity (primary rat microglia [4]; [13]) | Quadrant (FIG. 5b) [5, 14] | Quadrant (FIG. 5b) [5, 19] | LPS % cell toxicity (primary rat microglia [1]; [22]) | Fibrin % cell toxicity (primary rat microglia [4]; [25]) | further results
17 | Cc1onc(-c2ccccc2Cl)c1C(=O)N[C@@H]1C(=O)N2[C@@H]1SC(C)(C)[C@@H]2C(=O)O [Cloxacillin] |  |  |  |  |  |  |  |  | LPS % cell toxicity (primary rat microglia [1]; [6]): 1%; inhibition at 10 µM [2, 7]: 17%; inhibition at 10 µM [3, 8]: -13%; Fibrin % cell toxicity (primary rat microglia [4]; [9]): 1%; Quadrant (FIG. 5b) ([5]; primary HTS, 10 μM): Q4
18 | CCCCNc1ccc(C(=O)OCCN(C)C)cc1 [Tetracaine] | 1% | 9% | 4% | 1% | Q4 |  |  |  | 
19 | Cc1cc(C(C)(C)C)cc(C)c1CC1=NCCN1 [Xylometazoline] | 1% | 19% | -5% | 0% | Q4 |  |  |  | 
20 | CC(C)CC(N)=O [Isovaleramide] |  |  |  |  |  | Q4 |  |  | LPS % cell toxicity (primary rat microglia [1]; [15]): 0%; inhibition at 10 µM [2, 20]: 1%; inhibition at 10 µM [3, 21]: -10%; Fibrin % cell toxicity (primary rat microglia [4]; [18]): 1%
21 | O=C(O)P(=O)(O)O [Foscarnet] |  |  |  |  |  | Q4 |  |  | LPS % cell toxicity (primary rat microglia [1]; [15]): 0%; inhibition at 10 µM [2, 20]: 10%; inhibition at 10 µM [3, 21]: 5%; Fibrin % cell toxicity (primary rat microglia [4]; [18]): 1%
22 | N=C(N)N/N=C/c1c(Cl)cccc1Cl [Guanabenz Acetate] |  |  |  |  |  | Q4 |  |  | LPS % cell toxicity (primary rat microglia [1]; [15]): 0%; LPS % inhibition [2, 16]: −2%; Fibrin % inhibition [3, 17]: −46%; Fibrin % cell toxicity (primary rat microglia [4]; [18]): 0%
23 | CC(=O)OCC(COC(C)=O)OC(C)=O [Triacetin] | 0% | 15% | -32% | 1% | Q4 |  |  |  | 
24 | CN(C(=O)CN(CCO)CC(=O)N(C)C(C)(C)Cc1ccccc1)C(C)(C)Cc1ccccc1 [Oxethazaine] |  |  |  |  |  | Q4 | 0% | 1% | inhibition at 10 µM [2, 26]: 42%; inhibition at 10 µM [3, 27]: 25%
25 | CC(=O)OCC1=C(C(=O)O)N2C(=O)[C@@H](NC(=O)Cc3cccs3)[C@H]2SC1 [Cefalotin] |  |  |  |  |  |  |  |  | LPS % cell toxicity (primary rat microglia [1]; [6]): 0%; inhibition at 10 µM [2, 7]: 1%; inhibition at 10 µM [3, 8]: 1%; Fibrin % cell toxicity (primary rat microglia [4]; [9]): 1%; Quadrant (FIG. 5b) ([5]; primary HTS, 10 μM): Q4
26 | CO[C@@H]1[C@@H](OC(N)=O)[C@@H](O)[C@H](Oc2ccc3c(O)c(NC(=O)c4ccc(O)c(CC=C(C)C)c4)c(=O)oc3c2C)OC1(C)C [Novobiocin] |  |  |  |  |  | Q4 | 0% | 0% | inhibition at 10 µM [2, 26]: 8%; inhibition at 10 µM [3, 27]: -17%
27 | CN1C[C@H](CNC(=O)OCc2ccccc2)C[C@@H]2c3cccc4c3c(cn4C)C[C@H]21 [Metergoline] |  |  |  |  |  | Q4 | 0% | 1% | inhibition at 10 µM [2, 26]: 16%; inhibition at 10 µM [3, 27]: -12%
28 | CC(=O)NCc1c(I)c(NC(C)=O)c(I)c(C(=O)O)c1I [Iodamide] |  |  |  |  |  | Q1 | 1% | 0% | inhibition at 10 µM [2, 26]: 67%; inhibition at 10 µM [3, 27]: 41%
29 | COc1ccc(C(=O)c2ccc(C)cc2)c(O)c1 [Mexeneone] |  |  |  |  |  | Q4 | 0% | 1% | LPS % inhibition [2, 23]: 9%; Fibrin % inhibition [3, 24]: −8%
30 | CC(=O)N(c1onc(C)c1C)S(=O)(=O)c1ccc(N)cc1 [Sulfisoxazole Acetyl] | 1% | 17% | -3% | 1% | Q4 |  |  |  | 
31 | NS(=O)(=O)c1cc2c(cc1Cl)NC(C(Cl)Cl)NS2(=O)=O (centres unmarked) [Trichlormethiazide] | 0% | 13% | 17% | 1% | Q4 |  |  |  | 
32 | CC(NCCC(c1ccccc1)c1ccccc1)c1ccccc1 (centres unmarked) [Fendiline hydrochloride, reference compound] |  |  |  |  |  | Q4 | 0% | 1% | inhibition at 10 µM [2, 26]: 10%; IC50 ([2]; Rattus norvegicus, Microglia, Table 7, read-out: LPS_IC50): 900 nM; IC50 ([3]; Rattus norvegicus, Microglia, Table 7, read-out: fib_IC50): 1750 nM; inhibition at 10 µM [3, 27]: -33%; Quadrant (FIG. 5b) ([5]; Table 2, screen at 10 μM): Q4; Activity ([5]; Table 7, fib = fibrin, LPS, tox = toxicity): fib/LPS
